These results are taken from patent US11214625B2, “Application of PCSK9 inhibitors in the preparation of drugs for the treatment of inflammatory immune diseases” (priority 2015, dated 2022).

“Also recorded” adds a separate entry of the source.

The subject of series [1] is CD4 T cells isolated from peripheral blood of patients with psoriasis, eczema and urticaria. The experiment in a line: Effect of PCSK9 protein on cytokine secretion of peripheral blood CD4+ T cells (ELISA). Type of series: cell-based, human. On the procedure: Materials: peripheral blood of 10 cases of psoriasis, 10 cases of eczema, 10 cases of urticaria, and 10 cases of normal people. ELISA kit was purchased from Raybiotech
After PBMC was isolated by Ficoll-Hypaque from human peripheral blood by density gradient centrifugation, washed with 10 times volume 1×BD beads buffer. Then 50 ul BD IMag TM CD4 beads were added to each […]. The beads were mixed well and incubated at room temperature for 30 minutes. 1 ml 1×BD magnetic bead buffer solution was added, and the cells were transferred to the round bottom tube and placed in the magnetic frame for 8 to 10 minutes. And then the supernatant was discarded and removed the test tube from the magnetic field. After resuspension of cells attached to tube wall with 1 ml 1×BD magnetic bead buffer, the tubes were placed in magnetic field for 2-4 min again. The supernatant was discarded removed it out of the magnetic field, resuspended the cells and placed the tube in the magnetic field for 2-4 min. The cells obtained from the […] can be used in subsequent experiments. BD IMag TM CD4 separation system was purchased from BD Biosciences Company.
The supernatant was collected after cell culture under different conditions. IFN-Gamma represented TH1 type cytokines, IL-4 represented TH2 type cytokines, and IL-17 represented TH17 cytokines. The detection of IFN-Gamma, IL-4, IL-17 was conducted by ELISA.

The subject of series [2] is IMQ induced psoriatic lesions in BALB/c mice. The series can be described thus: External (cream) use on IMQ induced psoriatic lesions of mice. The following applies: for erythema, scales and infiltration in the back of the mice / score of erythema, scales, infiltration and total score: cream 0.01% once daily; for erythema, scales and infiltration in the back of the mice: 7 days pretreatment, then 6 days with IMQ; for score of erythema, scales, infiltration and total score: daily score during 6 days of IMQ; for adverse reaction: external ointment once a day; for efficacy compared between groups: external use (ointment/cream). Type of series: in vivo. On the procedure:
(1) 40 SPF female BALB/c mice aged 6-8 weeks were randomly divided into normal control group, model group, PCSK9 inhibitor group and PCSK9 monoclonal antibody group. There were 10 mice for each group. After intraperitoneal injection of pentobarbital sodium 80 mg/kg, the back was shaved with an area of about 2 cm×3 cm. The mice were feed separately for 1 day.
(2) In normal control group, vaseline was applied locally. In model group, small molecule inhibitor group and monoclonal antibody group, 62.5 mg of 5% imiquimod cream was applied on the back every day for 6 consecutive days, and photos were taken and the PASI score was evaluated.
(3) Pretreatment: vaseline was applied on the back skin with mics in normal control group and model group, PCSK9 small molecule inhibitor cream (0.01% concentration) was applied to inhibitor group once daily. And, PCSK9 monoclonal antibody cream (0.01% concentration) was applied to monoclonal antibody group once daily.
(4) After 7 days pretreatment, vaseline was applied on the back skin with mice in normal control group. At the same time, 62.5 mg 5% imiquimod cream was regularly applied daily on the back with mice in model group, small molecule inhibitor group and monoclonal antibody group. PCSK9 small molecule inhibitor cream or PCSK9 monoclonal antibody cream was applied after one hour. For 6 consecutive days, photos were taken and the PASI score was evaluated.

Series [3] has as its system IMQ induced psoriasis-like lesions in BALB/c mice. The experiment in a line: Subcutaneous injection in mice with IMQ induced psoriasis-like skin lesions. Type of series: in vivo. The following applies: for adverse reactions / therapeutic effect compared between groups: subcutaneous injection; for erythema, scales and infiltration in the back coating area: subcutaneous on first day (inhibitor 8 mg/kg, antibody 10 mg/kg), after 6 days of IMQ; for score of erythema, scales, infiltration and total score: subcutaneous, daily scoring during 6 days of IMQ. On the procedure:
The PCSK9 monoclonal antibody used for this example is Evolocumab. 40 SPF female BALB/c mice aged 6-8 weeks were randomly divided into normal control group, model group, PCSK9 small molecule inhibitor group and PCSK9 monoclonal antibody group. There were 10 mice for each group. After intraperitoneal injection of pentobarbital sodium 80 mg/kg, the back was shaved with an area of about 2 cm×3 cm. The mice were feed separately for 1 day.
(1) In normal control group, Vaseline was applied locally. In model group, inhibitor group and monoclonal antibody group, 62.5 mg of 5% imiquimod cream was applied on the back every day for 6 consecutive days, photos were taken and the PASI score was evaluated.
(2) On the first day, normal saline was subcutaneously administrated to normal control group and model group, PCSK9 small molecule inhibitor was subcutaneously administrated (8 mg/kg, Purchased from Selleck Inc.) to inhibitor group, and PCSK9 monoclonal antibody was subcutaneously administrated to monoclonal antibody group (10 mg/kg, Purchased from abcam Inc.)

Turning to “PCSK9 protein: PCSK9 protein added to CD4 T cells of patients”, the “secretion of IL-17, IL-2 and IFN-Gamma by CD4 T cells” value in series [1] (CD4 T cells of patients with psoriasis, eczema and urticaria, ELISA of supernatant) is given as “significantly promote”. In addition, the “expression of NFkb in CD4 T cells” value in series [1] (especially in psoriatic patients) is listed as “increased”.

As to `O=C(c1ccc(-n2nnc3cccnc32)cc1)N(c1ncccc1Cl)C1CCCNC1` (stereo not drawn) [PCSK9 small molecule inhibitor], in series [2], the “erythema, scales and infiltration in the back of the mice” value is “only slight erythema, scales and infiltration”; the “score of erythema, scales, infiltration and total score” value (from here on “score of erythema, scales”) is listed as “significantly lower than that in PCSK9 monoclonal antibody group; also recorded: significantly reduce”; the adverse reaction result was “no obvious adverse reaction”; the “efficacy compared between groups” value was “better than that of PCSK9 monoclonal antibody group; also recorded: significantly better than that of control group”. Further, in series [3], the adverse reactions result is listed as “no obvious adverse reactions”; the “therapeutic effect compared between groups” value is reported as “better than that of PCSK9 monoclonal antibody group; also recorded: significantly better than that of control group”; the “erythema, scales and infiltration in the back coating area” value is “only mild erythema, scales and infiltration”; the “score of erythema, scales” value is reported as “significantly lower than that of PCSK9 monoclonal antibody group; also recorded: reduce”.

B1: PCSK9 monoclonal antibody: PCSK9 monoclonal antibody used for Examples 6 and 7 is Evolocumab; SEQ ID NO:3-6 (antibody, chains of the INN, looked up, V domains shown)
VH: EVQLVQSGAEVKKPGASVKVSCKASGYTLTSYGISWVRQAPGQGLEWMGWVSFYNGNTNYAQKLQGRGTMTTDPSTSTAYMELRSLRSDDTAVYYCARGYGMDVWGQGTTVTVSS
VL: ESALTQPASVSGSPGQSITISCTGTSSDVGGYNSVSWYQQHPGKAPKLMIYEVSNRPSGVSNRFSGSKSGNTASLTISGLQAEDEADYYCNSYTSTSMVFGGGTKLTVL
On to B1, for which, in series [2], the “erythema, scales and infiltration in the back of the mice” value was “only slight erythema, scales and infiltration”; the “score of erythema, scales” value is “significantly reduce”; the adverse reaction entry was “no obvious adverse reaction”; the “efficacy compared between groups” value was “significantly better than that of control group”. In series [3], the adverse reactions entry is “no obvious adverse reactions”; the “therapeutic effect compared between groups” value was “significantly better than that of control group”; the “erythema, scales and infiltration in the back coating area” value was “only mild erythema, scales and infiltration”; the “score of erythema, scales” value is reported as “reduce”.
